Reference: patent publication US4587052A, “1H-pyrrolo-[2,1-C][1,4]benzodiazepine-2-acrylamide compounds having antitumor activity” (priority 1983, dated 1986)
Where two headings read alike, the source gives them in different places.

Tests used:
[1] = test system: mouse ascitic leukemia p388; test: Antitumor activity test (mouse ascitic leukemia p388 i.p. in BDF1-strain male mice); format: in vivo; conditions: for Therapeutic index: Table 2, toxic dose/effective dose; for Prolongation of survival time, %: ip
Experimental: 10^6 Cells of mouse ascitic leukemia p388 were administered intraperitoneally into each member of the groups of 8 to 12 BDF1 -strain male mice, each 18 to 20 g in body weight. After 24 hr from the administration, a test compound was intraperitoneally administered to each member of the test group in a predetermined dose once a day for 4 consecutive days. Days elapsed until death of the test animal were counted for each mouse. To each member of the control group, a physiological saline solution was administered. The average survival period of the animal was represented by mean survival time. The prolongation of survival time, indicative of the effectiveness of a test compound, was calculated by the following equation. [formula] The therapeutic index was calculated by the following equation. [formula]

in vivo = conditions: mouse, ip
Experimental: A test compound was dissolved in dimethyl sulfoxide and the solution was diluted to 50-fold with a physiological saline solution. This original solution was serially diluted at a common ratio of 1.15. Each resulting solution was administered intraperitoneally to groups of 10 to 15 dd-strain male mice, each 18 to 20 g in body weight. […] The LD50 was calculated from the number of dead mice of each group according to the Probit method.

[2] = already known; cited from earlier work
[3] = already known; cited from earlier work; remark: listed apart in the source
[4] = Table 2, i.p., dd-strain male mice, 3 weeks, read-out: LD50
[5] = Table 1, i.p., dd-strain male mice, 3 weeks, read-out: LD50

| Compound | Therapeutic index [1] | LD50 at 504 h (in vivo) [mg/kg] | LD50 at 504 h (in vivo; [5]) [mg/kg] | Prolongation of survival time, % ([1]; 30 mg/kg) [%] | further results |
| --- | --- | --- | --- | --- | --- |
| COC1Nc2c(ccc(C)c2OCCC(=O)O)C(=O)N2C=C(/C=C/C(N)=O)CC12 (stereo not drawn) [CH2 CH2 COOK, 5,10,11,11a-tetrahydro-9-(2-carboxyethoxy)-11-methoxy-8-methyl-5-oxo-1H-pyrrolo-[2,1-C][1,4]benzodiazepine-2-acrylamide] | 72.4 | 105 | – | – | Prolongation of survival time, % ([1]; 10 mg/kg): 172% |
| Cc1ccc2c(c1OCCCC#N)NC(O)C1CC(/C=C/C(N)=O)=CN1C2=O (stereo not drawn) [(CH2)3 CN, 5,10,11,11a-Tetrahydro-9-(3-cyanopropoxy)-11-hydroxy-8-methyl-5-oxo-1H-pyrrolo-[2,1-C][1,4]benzodiazepine-2-acrylamide] | 95.2 | – | – | – | Prolongation of survival time, % ([1]; 10 mg/kg): 188%; LD50 at 504 h (in vivo; [4]): 110 mg/kg |
| COC1Nc2c(ccc(C)c2OCCc2ccc(C(=O)O)cc2)C(=O)N2C=C(/C=C/C(N)=O)CC12 (stereo not drawn) [5,10,11,11a-tetrahydro-9-[2-(4-carboxyphenyl)-ethoxy]-11-methoxy-8-methyl-5-oxo-1H-pyrrolo-[2,1-C][1,4]benzodiazepine-2-acrylamide] | 82.3 | – | – | – | Prolongation of survival time, % ([1]; 10 mg/kg): 165%; LD50 at 504 h (in vivo; [4]): 128 mg/kg |
| Cc1ccc2c(c1O)NC(O)C1CC(/C=C/C(N)=O)=CN1C2=O (stereo not drawn) [PBA, 5,10,11,11a-tetrahydro-9,11-dihydroxy-8-methyl-5-oxo-1H-pyrrolo-[2,1-C][1,4]-benzodiazepine-2-acrylamide, reference compound] | 36.5 | 0.73 | – | – | antitumor activity (in words) [2]: an antitumor activity; antibacterial activity (in words) [3]: have an antibacterial activity |
| COC1Nc2c(ccc(C)c2OCC(=O)O)C(=O)N2C=C(/C=C/C(N)=O)CC12 (stereo not drawn) [CH2 COONa, 5,10,11,11a-tetrahydro-9-carboxymethoxy-11-methoxy-8-methyl-5-oxo-1H-pyrrolo-[2,1-C][1,4]benzodiazepine-2-acrylamide] | 88.5 | 102 | – | – | – |
| CCCCCCCCCC(CC(=O)Oc1c(C)ccc2c1NC(O)C1CC(C=CC(N)=O)=CN1C2=O)C(=O)O (stereo not drawn) [Table 1 entry 4 (R^1 not printed), 5,10,11,11a-tetrahydro-9-(3-carboxydodecanoyloxy)-11-hydroxy-8-methyl-5-oxo-1H-pyrrolo-[2,1-C][1,4]-benzodiazepine-2-acrylamide] | – | – | 122 | – | – |
| COC1Nc2c(ccc(C)c2OC(=O)c2cccc([N+](=O)[O-])c2C(=O)O)C(=O)N2C=C(C=CC(N)=O)CC12 (stereo not drawn) [5,10,11,11a-tetrahydro-9-(2-carboxy-3-nitrophenylcarbonyloxy)-11-methoxy-8-methyl-5-oxo-1H-pyrrolo-[2,1-C][1,4]-benzodiazepine-2-acrylamide] | – | – | 95 | 152 | – |
| Cc1ccc2c(c1OC(=O)CCC(=O)O)NC(O)C1CC(/C=C/C(N)=O)=CN1C2=O (stereo not drawn) [COCH2 CH2COOK, 5,10,11,11a-tetrahydro-9-(3-carboxypropanoyloxy)-11-hydroxy-8-methyl-5-oxo-1H-pyrrolo[2,1-C][1,4]-benzodiazepine-2-acrylamide] | – | 120 | – | 160 | – |
| Cc1ccc2c(c1OCCC#N)NC(O)C1CC(/C=C/C(N)=O)=CN1C2=O (stereo not drawn) [(CH2)2 CN, 5,10,11,11a-tetrahydro-9-(2-cyanoethoxy)-11-hydroxy-8-methyl-5-oxo-1H-pyrrolo-[2,1-C][1,4]benzodiazepine-2-acrylamide] | 103.8 | – | – | – | LD50 at 504 h (in vivo; [4]): 118 mg/kg |
| Cc1ccc2c(c1OC(=O)COCC(=O)O)NC(O)C1CC(/C=C/C(N)=O)=CN1C2=O (stereo not drawn) [COCH2OCH2COOK, 5,10,11,11a-tetrahydro-9-(4-carboxy-3-oxabutanoyloxy)-11-hydroxy-8-methyl-5-oxo-1H-pyrrolo-[2,1-C][1,4]-benzodiazepine-2-acrylamide] | – | – | 160 | 181.2 | – |
| CCC(CCCN)Oc1c(C)ccc2c1NC(OC)C1CC(/C=C/C(N)=O)=CN1C2=O (stereo not drawn) [5,10, 11, 11a-tetrahydro-9-(4-amino-1-ethylpropoxy)-11-methoxy-8-methyl-5-oxo-1H-pyrrolo-[2,1-C][1,4]benzodiazepine-2-acrylamide] | 78.4 | – | – | – | LD50 at 504 h (in vivo; [4]): 115 mg/kg |
| Cc1ccc2c(c1OCCCN)NC(O)C1CC(/C=C/C(N)=O)=CN1C2=O (stereo not drawn) [(CH2)3 NH2, 5,10,11,11a-tetrahydro-9-(3-aminopropoxy)-11-hydroxy-8-methyl-5-oxo-1H-pyrrolo[2,1-C][1,4]benzodiazepine-2-acrylamide] | 93.5 | 103 | – | – | – |
| Cc1ccc2c(c1OC(=O)CCCCC(=O)O)NC(O)C1CC(/C=C/C(N)=O)=CN1C2=O (stereo not drawn) [COCH2 CH2 CH2 CH2COOK, 5,10,11,11a-tetrahydro-9-(5-carboxypentanoyloxy)-11-hydroxy-8-methyl-5-oxo-1H-pyrrolo-[2,1-C][1,4]-benzodiazepine-2-acrylamide] | – | – | 157 | 172.5 | – |
| COC1Nc2c(ccc(C)c2OC(=O)c2ccccc2C(=O)O)C(=O)N2C=C(C=CC(N)=O)CC12 (stereo not drawn) [5,10,11,11a-tetrahydro-9-(2-carboxyphenylcarbonyloxy)-11-methoxy-8-methyl-5-oxo-1H-pyrrolo-[2,1-C][1,4]-benzodiazepine-2-acrylamide] | – | – | 86.9 | 130.2 | – |
| CC(=O)SC(CC(=O)Oc1c(C)ccc2c1NC(O)C1CC(/C=C/C(N)=O)=CN1C2=O)C(=O)O (stereo not drawn) [5,10,11,11a-tetrahydro-9-(3-carboxy-3-S-acetylmercaptopropanoyloxy)-11-hydroxy-8-methyl-5-oxo-1H-pyrrolo-[2,1-C][1,4]-benzodiazepine-2-acrylamide] | – | – | 138 | – | – |
| Cc1ccc2c(c1OCc1ccccc1C#N)NC(O)C1CC(/C=C/C(N)=O)=CN1C2=O (stereo not drawn) [5,10,11,11a-tetrahydro-9-(2-cyanobenzyloxy)-11-hydroxy-8-methyl-5-oxo-1H-pyrrolo-[2,1-C][1,4]benzodiazepine-2-acrylamide] | 73.3 | 120 | – | – | – |
| Cc1ccc2c(c1O)N=CC1CC(/C=C/C(N)=O)=CN1C2=O (stereo not drawn) [P'B'A', 5,11,11a-trihydro-9-hydroxy-8-methyl-5-oxo-1H-pyrrolo[2,1-C][1,4]benzodiazepine-2-acylamide] | – | – | – | – | antitumor activity (in words) [2]: an antitumor activity; antibacterial activity (in words) [3]: have an antibacterial activity |
| Cc1ccc2c(c1OC(=O)CCCC(=O)O)NC(O)C1CC(/C=C/C(N)=O)=CN1C2=O (stereo not drawn) [COCH2 CH2 CH2COOK, 5,10,11,11a-tetrahydro-9-(4-carboxybutanoyloxy)-11-hydroxy-8-methyl-5-oxo-1H-pyrrolo-[2,1-C][1,4]-benzodiazepine-2-acrylamide] | – | – | 151 | 185 | – |
